Experimental data from patent publication US9669005B2, “Use of naringenin in preparing drugs for preventing and/or treatment abdominal aortic aneurysm” (priority 2013, dated 2017).

How the values were obtained:
Format in all cases: in vivo
MMP-2 and NMP-9 = test: Gelatin zymography, CaPO4 model; details: CaPO4 daubed mice; infrarenal abdominal aorta culture supernatant; FIG. 4B
Protocol: (§1) After extravasated blood in fresh removed blood vessels of infrarenal site in abdominal aortas of mice were cleared, and fat and connective tissues were removed, and blood vessels were cut into 1 cm ring, and put into 24-well plate. Blood vessels were cultured for 24 hours using 0.5 ml serum-free medium with high glucose. After the cultured supernatant protein was quantified, mercaptoethanol-free protein sample loading buffer was added, cryopreserved at −80° C. Water was used to prepare gelatin (Sigma-Aldrich, St. Louis, Mo.) into a concentration of 10 mg/ml, which was added to separation gel of protein electrophoresis according to the proportion of 1:10, causing the final concentration of gelatin as 1 mg/ml. Electrophoresis was performed in a voltage of 80V at 4° C. The gel was put into 0.25% Trixon-100 solution, and washing was performed twice in 30 minutes. […] Incubated gel was put into Coomassie brilliant blue to stain for 1-2 hours at room temperature, washed for 30 minutes with a solution having 30% methanol and 10% glacial acetic acid, a solution having 20% methanol and 10% glacial acetic acid, and a solution having 10% methanol and 5% glacial acetic acid, respectively, and then analyzed with Odyssey infrared fluorescence scanning system (LI-COR Biosciences, Lincoln, Nebr.). […]

IL-6 and MCP-1 = test: Immunohistochemical staining of IL-6 and MCP-1 on vascular walls, CaPO4 model; details: CaPO4 daubed mice; immunohistochemistry; FIG. 3B
From the text: IL-6 and MCP-1 are proinflammatory chemotactic factors and cytokines, and they are mainly from vascular walls. MCP-1 can release more matrix metalloproteinase to degrade matrix by recruiting leukocytes, which mediats vascular remodeling and expanding (MacTaggart J N et al. Deletion of ccr2 but not ccr5 or cxcr3 inhibits aortic aneurysm formation Surgery. 2007; 142:284-288; Ishibashi M et al. Bone marrow-derived monocyte chemoattractant protein-1 receptor ccr2 is critical in angiotensin ii-induced acceleration of atherosclerosis and aneurysm formation in hypercholesterolemic mice. Arterioscl throm vasc biol. 2004; 24: e174-178), while IL-6 can enlarge effect of MCP-1 to aggravate the onset of abdominal aortic aneurysms (Tieu B C et al. An adventitial il-6/mcpl amplification loop accelerates macrophage-mediated vascular inflammation leading to aortic dissection in mice. J Clin Invest. 2009; 119:3637-3651). We used histochemical staining to identify the expressions of IL-6 and MCP-1 on vascular walls. IL-6 and MCP-1 were immunohistochemical results of anti-IL-6 and anti-MCP-1 specific antibodies (purchased from Abcam, Cambridge Company, UK), respectively.

[1] = system: IL-6, MCP-1, IL-10, TNF-α and IFN-γ in plasma; test: Inflammatory factors in plasma by flow kit, angiotensin II model; details: AngII ApoE-/- mice, naringenin gavage, FIG. 7B
Protocol: Eyeballs of mice were removed and blood was drawn, 20 μl of heparin was added into the blood, after centrifuged at 6000 rotations and 4[…] for 10 minutes, the supernatant was aspirated. 10 μl of supernatant was taken, and 10 μl of beads were added, and then 10 μl of PE was added, washed twice with lotion after incubating for 2 hours at room temperature, and then 200 μl of lotion is added. Sorting was performed in the manner of up-flowing after blending (wherein, the flow kits of inflammatory factors of mice were purchased from BD Company).

[2] = Body weight and blood fat of CaPO4 treated C57BL/6J mice
Protocol: Gavage was started at the first day after surgery, and water, naringenin (50 mg/kg) (Sigma-Aldrich, St. Louis, Mo.) or doxycycline (100 mg/kg) (Sigma-Aldrich, St. Louis, Mo.) gavage were given on mice daily. Materials were removed from the mice 7 days after gavage. Mice were weighed, and blood was drawn from inner canthus by capillary, after centrifuged for 10 minutes at 6000 rotations, the supernatant was removed and blood fat was measured (kit is purchased from BIOSINO company). Then perfusion and washing were performed on mice using PBS. Blood vessels were separated, and four blood vessels were randomly chosen for each group for photographing. The results were shown in FIG. 1, wherein, NaCl was the group of daubing NaCl (n=11), CaPO4 was the group of daubing CaPO4 plus water feed (n=12), CaPO4+NGN was the group of daubing CaPO4 μlus naringenin gavage (n=11), and CaPO4+Dox was the group of daubing CaPO4 μlus doxycycline gavage (n=11).

NMP-9 and NMP-2 = test: Gelatin zymography, angiotensin II model; details: AngII ApoE-/- mice; naringenin gavage; FIG. 8B
Protocol: as §1

metalloproteinase = test: In situ zymography, angiotensin II model; details: AngII ApoE-/- mice; naringenin gavage; FIG. 8A
Protocol: After the aortas of mice were perfused with PBS, fresh tissue was directly embedded with OCT, put in liquid nitrogen for freezing, and then continuously sliced. Firstly, washing was performed with PBS for 3 min, thrice. A fluorescently labeled DQ-gelation-FITC substrate (Sigma-Aldrich, St. Louis, Mo.) was incubated 1 hour at 37° C. Under normal circumstances, fluorescent label for the substrate was packaged, so there is no fluorescence; after activated gelatinase degraded gelatin, green fluorescent label would be exposed. After the section was incubated, washing was performed with PBS for 3 min, thrice, and then the section was sealed. Immunofluorescence confocal microscopy was used to irradiate. The stronger fluorescence was, which means, the stronger activity of matrix metalloproteinase was.

[3] = CaPO4 treated C57BL/6J mice, gavage 7 days, naringenin 50 mg/kg, doxycycline 100 mg/kg

## O=C1C[C@@H](c2ccc(O)cc2)Oc2cc(O)cc(O)c21 [naringenin]
MMP-2 and NMP-9
  MMP-2 and NMP-9 (gelatin zymography): reverse the increase of MMP-2 and NMP-9 caused by CaPO4 daubing
IL-6 and MCP-1
  expression of IL-6 and MCP-1 in adventitia in vascular walls: reduce their expressions
[1]
  IL-10 in plasma: does not change significantly
  TNF-α and IFN-γ in plasma: do not change
[1]; n=11, P<0.05
  levels of IL-6 and MCP-1 in plasma: significantly decrease
[2]; C57BL/6J mice, naringenin gavage 50 mg/kg, 7 days
  body weights and blood fat levels: does not affect
[2]; [3]
  Body weight: 20.1 ± 1.41 g
  Cholesterol: 3.53 ± 0.45 mmol
  Triglyceride: 0.97 ± 0.22 mmol
NMP-9 and NMP-2
  active form of NMP-9 and NMP-2 (gelatin zymography): do not change significantly
  zymogen form of MMP-9 (gelatin zymography): significantly decreases
metalloproteinase
  activated metalloproteinase (in situ zymography): significantly decreases
